{"source": "patent US20120114706A1", "about": "“Endorphin Therapy Compositions and Methods of Use Thereof” (priority 2008, published 2012)", "format_in_all_cases": "in vivo, rat", "key": {"MADB106 cells [1]": {"system": "MADB106 cells", "assay": "MADB106 lung metastasis / lung tumor retention", "settings": "naloxone 1 mg/kg every 12 hours, 3 times", "procedure": "A method for lung metastasis was adapted using MADB106 breast cancer cells, a NK-sensitive cell line widely used for lung metastasis study. Animals were anesthetized, and 100,000/0.2 ml/rat of MADB106 cells suspended in media were inoculated into jugular vein. After 4˜6 weeks, 70˜80% of inoculated animals developed tumor at the position of lung and/or neck, where the tumor cells were inoculated into the jugular vein.\n30 female Fischer rats were implanted with control, cAMP (10 μM) or cAMP (5 μM)+PACAP (5 μM) nanospheres into 3rd ventricle. 2 weeks later, half of the animals were randomly assigned to treatment with Naloxone (1 mg/kg body every 12 hours) for 3 times. After the second injection of Naloxone, animals were anesthetized and inoculated with 100,000/0.2 ml/rat MADB106 cells. 2 months later, animals were sacrificed, and lungs were fixed and sectioned for histology diagnosis.\nMADB106 cells, a Fischer 344 rat mammary adenocarcinoma cell line maintained in DMEM containing 10% fetal calf serum, was used. Female Fischer-344 rats were transplanted with BEP cell transplants or control cell transplants at 50 days of age. After about 2 weeks, these PVN cell-transplanted rats were inoculated with MADB106 tumor cells (100,000 cells/0.2 mL/rat) into jugular vein under sodium Nembutal solution (50 mg/kg) anesthesia. […]"}, "[2]": {"assay": "Plasma corticosterone after nanosphere implantation", "settings": "naloxone 1 mg/kg i.p., 12 hours", "procedure": "2 weeks later, half of the animals were i.p. injected with naloxone (1 mg/kg body weight), which is aμ-opioid receptor antagonist, specifically blocking the effect of β-EP. 12 hours later, animals were anesthetized with Nembutal, and blood was drawn from jugular vein. Plasma corticosterone level was measured with ELISA.\n2 months later, animals were anesthetized, and 1 ml of blood was drawn from jugular vein."}, "MADB106 cells [3]": {"system": "MADB106 cells", "assay": "Pharmacologic modification of autonomic influence on immune system and lung metastasis", "procedure": "48 β-EP implanted (SC) male Fischer rats and 48 control (C) male Fischer rats were divided into 8 groups, treated with saline, Naloxone (10 mg/kg body weight), Metaproterenol (MP, 0.8 mg/kg body weight), or Methyllycaconitine (MLA, 2.5 mg/kg body weight), respectively. Animals were treated with drugs for 8 days. In the second day of drug injection, animals were inoculated with MADB106 cells (100,000/0.2 ml/rat). 24 hours after tumor cell inoculation, blood was collected by orbital puncture. Plasma was collected, and PBMCs were separated for migration assay and NK cytolytic assay. 7 days after tumor inoculation, blood was taken again by orbital puncture. Plasma was collected, and PBMCs were separated for migration assay and T cell cytolytic assay. After 6 weeks, animals were sacrificed, and brains, spleens and blood were frozen. Lungs were fixed in formalin and processed to H&E staining. […] However, 7 days after tumor inoculation, there isn't a clear pattern of T cell cytolytic activity and macrophage migration activity between groups (FIGS. 30B and 30D).\nIt was hypothesized that the beneficial effect of BEP neuron transplants on immune function is regulated through autonomic nervous system, and that central BEP modulate peripheral immune function by inhibiting the sympathetic activity and activating the parasympathetic activity. Metaproterenol (MET) is an agonist for β-receptors, which are a class of G protein-coupled receptors that are targets of the catecholamines, especially norepinephrine and epinephrine (Dokur et al. (2004) J Neuroimmunol 5:148-57; Page et al. (2008) J Neuroimmunol 193:113-9). Methyllycaconitine (MLA) is a selective antagonist of α7 nicotine acetylcholine receptor (α7 nAChR; Wu et al. (2011) Clin Cancer Res 17:3533-41). By injecting MET and MLA i.p., the stimulation of sympathetic nerves and inhibition of parasympathetic nerves was mimicked. Naloxone, an opiate receptor antagonist, was used to test whether BEP neuronal effects is acted via opiodergic receptor (Boyadjieva et al. (2006) Alcohol Clin Exp Res 30:1761-7). Forty-eight BEP neuron-transplanted Fischer rats and 48 control rats were divided into 8 groups and treated with saline, naloxone (10 mg/kg body weight), MET (0.8 mg/kg body weight), or MLA (2.5 mg/kg body weight) for 8 days (the doses used for these drugs are recognized as effective biological doses). A day after the first injection of these agents, animals were inoculated with MADB106 cells (100,000/0.2 mL/rat). Twenty-four hours after tumor cell inoculation, blood was collected by orbital puncture. Plasma was collected, and peripheral blood mononuclear cells (PBMC) were separated for migration assay and NK cytolytic assay. These animals continued receiving the blocker treatments for 7 days. After 4 weeks they were sacrificed, their lungs were fixed in formalin and processed to H&E staining for determination of cancer pathology. Brain tissues were processed for verification of the site and viability of BEP cell transplantation."}, "[4]": {"settings": "24 hours after MADB106 inoculation, naloxone 10, MP/MET 0.8, MLA 2.5 mg/kg or saline"}}, "note": "Entries after “also recorded” stand apart in the source; their conditions may differ.", "data": [{"smiles": "C=CCN1CC[C@]23c4c5ccc(O)c4O[C@H]2C(=O)CC[C@@]3(O)[C@H]1C5", "note": "[naloxone]", "values": [{"measurement": "effect on nanosphere-reduced lung tumor retention", "setting": "MADB106 cells [1]", "result": "reversed the effect of nanosphere"}, {"measurement": "effect on nanosphere-lowered plasma corticosterone", "setting": "[2]", "result": "blocked the effect of nanospheres"}, {"measurement": "PBMC NK cell activity", "setting": "MADB106 cells [3]; [4]", "result": "moderate or strong inhibitory effect"}, {"measurement": "macrophage migration activity", "setting": "MADB106 cells [3]; [4]", "result": "moderate or strong inhibitory effect"}, {"measurement": "effect on β-EP elimination of tumor cell lung retention", "setting": "MADB106 cells [3]; β-EP transplanted Fischer rats, naloxone 10, MP/MET 0.8, MLA 2.5 mg/kg for 8 days", "result": "stopped the effect of β-EP; also recorded: prevented, at various degrees"}]}]}
